Paper PMC6455008, “Methylation at the C-3′ in D-Ring of Strigolactone Analogs Reduces Biological Activity in Root Parasitic Plants and Rice” (Frontiers in Plant Science, 2019)

Tests used:
[1] = test system: Striga hermonthica; assay: Striga emergence in pots under greenhouse conditions (suicidal germination, rice host); type: in vivo; conditions: formulated 1.0 μM; for Striga emergence at 10 WAS / decrease in Striga emergence compared to mock at 10 WAS: 10 weeks after sowing; for Striga hermonthica emergence, 5 WAS / Striga hermonthica emergence, 6 WAS / Striga hermonthica emergence, 7 WAS / Striga hermonthica emergence, 8 WAS / Striga hermonthica emergence, 9 WAS / Striga hermonthica emergence, 10 WAS: mean ± SE; for Striga hermonthica emergence, 5 WAS: n=5, 5 weeks after sowing; for Striga hermonthica emergence, 6 WAS: n=5, 6 weeks after sowing; for Striga hermonthica emergence, 7 WAS: n=5, 7 weeks after sowing; for Striga hermonthica emergence, 8 WAS: n=5, 8 weeks after sowing; for Striga hermonthica emergence, 9 WAS: n=5, 9 weeks after sowing; for Striga hermonthica emergence, 10 WAS: n=5, 10 weeks after sowing; for percent decrease in Striga hermonthica emergence over mock, 8 WAS / percent decrease in Striga hermonthica emergence over mock, 9 WAS / percent decrease in Striga hermonthica emergence over mock, 10 WAS: negative = decrease
Method: About 10 mg of (ca 4,000) Striga seeds were thoroughly mixed in 2 L of sand and soil mixture (1:1) and added in 3-L perforated plastic pot containing 0.5 L of clean soil in the bottom. Striga seeds were first preconditioned by giving light irrigation and putting pots at 35°C in greenhouse for 10 days. Each pot was sprayed with 20-ml (1.0 μM) formulated SL analogs up to 10 days at 2-day intervals. A light irrigation was given next day of each application to move the compound to Striga seeds and they were allowed to germinate for suicidal death without host for another 1 week. Then, three rice seedlings (5 days old) were planted in the middle of each pot. The rice plants were grown under normal growth condition (30°C, 70% RH) for 8 weeks. Number of emerged Striga plants in each pot were counted.

[2] = Stability of SL analogs in aqueous solution by HPLC; type: physicochemical; conditions: pH 6.8, 3-day intervals up to 3 weeks
Method: The SL analogs GR24, AR8, MP13, and MP26 were first tested for their stability by high-performance liquid chromatography (HPLC) in an aqueous solution (50 μgml^−1, pH, 6.8) by adopting the previously described procedure with minor modifications ([Jamil et al., 2018]). Each compound (1 mg) was dissolved in 1-ml acetone, and then […] out of the analog solution were diluted with 150 μl ethanol and 750 μl water. Thereafter, 25 μl Indanol (1 mg ml^−1, internal standard) was spiked in 975-μl test solution. The time course of degradation was monitored by ultra-performance liquid chromatography (UPLC) analysis using a Zorbax Eclipse XDB-C18 column (3.5 μm, 4.6 mm× 150 mm), eluted first by 5% acetonitrile in water for 0.5 min, then by a gradient flow from 5 to 100% acetonitrile within 17.5 min, and by 100% acetonitrile for 5 min. The column was operated at 40°C with a flow rate of 0.35 ml min^−1, and the temperature of auto-sampler was set at 21°C. Compounds eluted from the column were detected with a photodiode array detector, and the relative quantity of non-degraded amount was calculated by integrating corresponding peak areas and comparison with the internal standard Indanol. Stability was monitored at 3-day intervals up to 3 weeks.

[3] = test system: Striga seeds; assay: Stability of formulated SL analogs in sand (Striga germination readout); type: physicochemical, Striga hermonthica; conditions: 1.0 μM; for Striga seed germinating activity before incubation in sand: no incubation
Method: The stability of formulated SL analogs was further tested in sand culture. About 1.5 ml of silver sand was added in each of 6 wells of 24-well plates. Then, 800 μl of formulated SL analogs (1.0 μM) was added in each of the six wells. The plates were sealed firmly with para-film, wrapped in aluminum foil, and placed at 30°C from day 1 to day 7. After 7 days, glass fiber discs containing preconditioned Striga seeds were placed on the top of each of the six wells and incubated in the dark at 30°C for 24 h. The germinated and non-germinated seeds were counted from each disc. In addition, the viability of formulated SL analogs was also tested in aqueous solution for 7 weeks at 30°C. About 800-μl aqueous solution of formulated SL analogs (1.0 μM) was added in a black Eppendorf tube weekly up to 6 weeks and incubated at 30°C. On the seventh week, about 50 μl of each analog was applied on a glass fiber disc containing preconditioned Striga seed and put again in the dark in sealed petri plates at 30°C for 24 h. Germinated and non-germinated seeds were counted from each disc.

[4] = test system: Striga; assay: Striga emergence after formulated MP13 in naturally infested farmer's field (pearl millet host); type: in vivo
Method: A naturally Striga-infested farmer’s field was selected near Kouaré research station ([…], 0°30′W) (Fada N’Gourma, Burkina Faso) to test suicidal activity of formulated MP13, taking formulated water treatment as control treatment. After onset of few rains, the field was thoroughly prepared by subsequent ploughing and planking. The experiment was laid out in a randomized complete block design with four plots or replications. Each plot consisted of two 3-m-long mounds and spaced with one mound between rows. Formulated MP13 and normal water (control) were applied twice in each plot (25 ml m^−2) following rains (~10 mm) to get a final concentration of 0.5 μM. Local pearl millet crop was sown at least 1 week after the second application. Data on the number of emerged Striga plants at three counting dates were collected in both fields on a plot basis. The three Striga counts were then used to calculate the average number of emerged Striga plants throughout the season.

| SMILES | Striga emergence at 10 WAS [1] | decrease in Striga emergence compared to mock at 10 WAS [1] | Striga hermonthica emergence, 5 WAS [1] | Striga hermonthica emergence, 6 WAS [1] | Striga hermonthica emergence, 7 WAS [1] | Striga hermonthica emergence, 8 WAS [1] | Striga hermonthica emergence, 9 WAS [1] | Striga hermonthica emergence, 10 WAS [1] | percent decrease in Striga hermonthica emergence over mock, 8 WAS [1] | percent decrease in Striga hermonthica emergence over mock, 9 WAS [1] | percent decrease in Striga hermonthica emergence over mock, 10 WAS [1] | stability by HPLC (relative amount of non-degraded analog) [2] | Striga seed germinating activity before incubation in sand [3] | Striga seed germinating activity after 1 day in sand ([3]; sand, 30°C) | Striga seed germinating activity after day 3 in sand ([3]; sand, 30°C, after day 3) | Striga emergence (No. per plot), change vs control ([4]; formulated MP13, 0.5 μM, printed in Figure 8E) | Striga plants counted at the end of the season ([4]; formulated MP13 applied twice, final conc. 0.5 μM, pearl millet, mock field 154) | Striga seed germinating activity after 2 days in sand ([3]; sand, 30°C, 2 days) |
| --- | --- | --- | --- | --- | --- | --- | --- | --- | --- | --- | --- | --- | --- | --- | --- | --- | --- | --- |
| COC(=O)/C=C/C(C)=C/OC1C=C(C)C(=O)O1 (stereo not drawn) [MP26, (2E,4E)-methyl 4-methyl-5-(4-methyl-5-oxo-2,5-dihydrofuran-2-yloxy)penta-2,4-dienoate] | four | 69% | 0.0±0.0 | 0.8±0.6 | 1.4±0.4 | 2.6±0.4 | 3.6±0.8 | 4.0±0.9 | -76% | -68% | -69% | equal stability as GR24 up to 6 days of incubation | around 60% | 27% | not detectable |  |  |  |
| CC1=CC(O/C=C(\C)C=O)OC1=O (stereo not drawn) [MP13, (E)-2-methyl-3-[(4-methyl-5-oxo-2,5-dihydrofuran-2-yl)oxy]acrylaldehyde] | six | 52% | 0.0±0.0 | 1.6±1.0 | 2.6±0.6 | 4.8±0.6 | 5.8±0.6 | 6.2±0.7 | -56% | -51% | -52% | lowest stability throughout the whole 3 weeks of analysis | around 60% | 10% |  | -41% | 91 plants m^−2 | complete loss of the activity |
| CC1=C(C)C(O/C=C(\C)C=O)OC1=O (stereo not drawn) [AR8, reference compound] | 11 plants per pot | around 18% | 0.4±0.2 | 4.4±0.5 | 7.2±1.5 | 10.6±1.5 | 10.8±1.5 | 10.6±1.5 | -4% | -11% | -18% | slightly less stability than GR24 and MP26 but more than MP13 |  | completely lost its ability to induce Striga germination |  |  |  |  |
